This is an account of results in US6683103B2, “Sulfonamides for treatment of endothelin-mediated disorders” (Texas Biotechnology Corporation, priority 1997, dated 2004).

Like-named read-outs stand apart in the source and are kept apart here.

In one assay the target is T1, human ETA receptors (Homo sapiens, UniProt P25101).
T1 construct: endogenous in cells; host or cells: TE 671 cells (ATCC HTB 139)
T1 sequence (P25101 21-427): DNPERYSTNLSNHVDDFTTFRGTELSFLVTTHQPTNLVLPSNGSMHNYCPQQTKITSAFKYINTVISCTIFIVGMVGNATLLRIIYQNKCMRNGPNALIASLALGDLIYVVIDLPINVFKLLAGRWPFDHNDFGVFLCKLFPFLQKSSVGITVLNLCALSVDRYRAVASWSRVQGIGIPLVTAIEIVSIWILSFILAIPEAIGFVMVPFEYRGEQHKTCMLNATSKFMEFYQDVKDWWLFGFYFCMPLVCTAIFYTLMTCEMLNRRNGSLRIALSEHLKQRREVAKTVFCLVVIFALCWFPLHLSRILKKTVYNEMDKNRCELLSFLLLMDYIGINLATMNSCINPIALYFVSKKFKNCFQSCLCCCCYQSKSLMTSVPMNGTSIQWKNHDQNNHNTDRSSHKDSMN
The assay is described as follows: Binding Test #1: inhibition of 125I-ET-1 binding to ETA receptors (TE 671 cell membranes). The text has this: (§1) Compounds that are potential endothelin antagonists are identified by testing their ability to compete with ^125I-labeled ET-1 for binding to human ETA receptors or ETB receptors present on isolated cell membranes. The effectiveness of the test compound as an antagonist or agonist of the biological tissue response of endothelin can also be assessed by measuring the effect on endothelin induced contraction of isolated rat thoracic aortic rings. The ability of the compounds to act as antagonists or agonists for ETB receptors can be assess by testing the ability of the compounds are to inhibit endothelin-1 induced prostacyclin release from cultured bovine aortic endothelial cells.
A. Endothelin Binding Inhibition—Binding Test #1: Inhibition of Binding to ETA Receptors
TE 671 cells (ATCC Accession No. HTB 139) express ETA receptors. These cells were grown to confluence in T-175 flasks. Cells from multiple flasks were collected by scraping, pooled and centrifuged for 10 min at 190×g. The cells were resuspended in phosphate buffered saline (PBS) containing 10 mM EDTA using a Tenbroeck homogenizer. The suspension was centrifuged at 4° C. at 57,800×g for 15 min, the pellet was resuspended in 5 ml of buffer A (5 mM HEPES buffer, pH 7.4 containing aprotinin (100 KIU/ml)) and then frozen and thawed once. 5 ml of Buffer B (5 mM HEPES Buffer, pH 7.4 containing 10 mM MnCl2 and 0.001% deoxyribonuclease Type 1) was added, the suspension mixed by inversion and then incubated at 37° C. for 30 minutes. The mixture was centrifuged at 57,800×g as described above, the pellet washed twice with buffer A and then resuspended in buffer C (30 mM HEPES buffer, pH 7.4 containing aprotinin (100 KIU/ml) to give a final protein concentration of 2 mg/ml and stored at −70° C. until use.
The membrane suspension was diluted with binding buffer (30 mM HEPES buffer, pH 7.4 containing 150 mM NaCl, 5mM MgCl2, 0.5% Bacitracin) to a concentration of 8 μg/50 μl. ^125I-endothelin-1 (3,000 cpm, […]) was added to 50 μL of either: (A) endothelin-1 (for non specific binding) to give a final concentration 80 nM); (B) binding buffer (for total binding); or (C) a test compound (final concentration 1 nM to 100 μM). The membrane suspension (50 μL), containing up to 8 μg of membrane protein, was added to each of (A), (B), or (C). Mixtures were shaken, and incubated at 4° C. for 16-18 hours, and then centrifuged at […] for 25 min at 2,500×g. Alternatively, the incubation was conducted at 24° C. […] This, must be kept in mind when comparing IC50 concentrations among compounds provided herein.
The supernatant, containing unbound radioactivity, was decanted and the pellet counted on a Genesys multiwell gamma counter. The degree of inhibition of binding (D) was calculated according to the following equation: [formula]
Each test was generally performed in triplicate.

A further assay addresses T2, human ETB receptor (Homo sapiens, UniProt P24530).
T2 construct: expressed in transfected cells; host or cells: COS7 cells
T2 sequence (P24530 27-442): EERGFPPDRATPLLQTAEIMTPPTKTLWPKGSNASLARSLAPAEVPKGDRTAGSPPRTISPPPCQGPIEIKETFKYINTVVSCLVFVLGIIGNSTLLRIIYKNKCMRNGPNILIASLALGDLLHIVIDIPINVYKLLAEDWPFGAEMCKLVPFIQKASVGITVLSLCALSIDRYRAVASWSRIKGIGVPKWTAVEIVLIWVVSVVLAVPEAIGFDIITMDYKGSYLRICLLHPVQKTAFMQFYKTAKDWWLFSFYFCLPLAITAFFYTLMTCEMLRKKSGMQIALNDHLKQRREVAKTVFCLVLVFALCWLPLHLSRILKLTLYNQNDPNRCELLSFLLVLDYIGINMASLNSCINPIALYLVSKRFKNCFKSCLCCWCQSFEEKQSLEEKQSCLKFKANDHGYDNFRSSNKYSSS
The assay is described as follows: Binding Test #2: inhibition of 125I-ET-1 binding to ETB receptors (transfected COS7 cell membranes).
From the text: as §1
B. Endothelin Binding Inhibition—Binding Test #2: Inhibition of Binding to ETB Receptors
COS7 cells were transfected with DNA encoding the ETB receptor, The resulting cells, which express the human ETB receptor, were grown to confluence in T-150 flasks. Membrane was prepared as described above. The binding assay was performed as described above using the membrane preparation diluted with binding buffer to a concentration of 1 μg/50 μl.
Briefly, the COS7 cells, described above, that had been transfected with DNA encoding the ETB receptor and express the human ETB receptor on their surfaces were grown to confluence in T-1 75 flasks. Cells from multiple flasks were collected by scraping, pooled and centrifuged for 10 min at 190×g. The cells were resuspended in phosphate buffered saline (PBS) containing 10 mM EDTA using a Tenbroeck homogenizer. The suspension was centrifuged at 4° C. 57,800 X g for 15 min, the pellet was resuspended in 5 ml of buffer A (5mM HEPES buffer, pH 7.4 containing aprotinin (100 KIU/ml)) and then frozen and thawed once. Five ml of Buffer B (5 mM HEPES Buffer, pH 7.4 containing 10 mM MnCl2 and 0.001% deoxyribonuclease Type 1) was added, the suspension mixed by inversion and then incubated at 37° C. for 30 minutes. The mixture was centrifuged at 57,800×g as described above, the pellet washed twice with buffer A and then resuspended in buffer C (30 mM HEPES buffer, pH 7.4 containing aprotinin (100 KIU/ml) to give a final protein concentration of 2 mg/ml.
The binding assay was performed as described above using the membrane preparation diluted to give 1 μg/50 μl of binding buffer.

Setting [1] is: Table 1, incubation at 4° C., read-out: ETA.
Where [2] appears, read: Table 1, incubation at 4° C., read-out: ETB.
Setting [3] is: Table 2, incubation at 4° C., read-out: ETA.
The mark [4] stands for this setting: Table 2, incubation at 4° C., read-out: ETB.

For the compound `Cc1noc(NS(=O)(=O)c2ccsc2C(=O)O)c1C` [N-(3,4-dimethyl-5-isoxazolyl)-2-(carboxyl)thiophene-3-sulfonamide], the IC50 at human ETA receptors (setting [1]) was 2640 nM; at human ETB receptor (setting [2]), > 100000 nM.
Take `Cc1noc(NS(=O)(=O)c2ccccc2-c2ccccc2)c1C` [N-(3,4-dimethyl-5-isoxazolyl)-2-biphenylsulfonamide]: the IC50 on human ETA receptors (setting [3]) is 8.3 ± 1.4 nM; on human ETA receptors (read-out: IC50 for ETA receptors) it was ~8 nM; at human ETB receptor (setting [4]), 12800 nM.
In the case of `Cc1noc(NS(=O)(=O)c2cccc(-c3ccccc3)c2)c1C` [N-(3,4-dimethyl-5-isoxazolyl)-3-biphenylsulfonamide], the IC50 at human ETA receptors (setting [3]) is > 30 nM; at human ETB receptor (setting [4]), 3480 nM; at human ETB receptor (read-out: IC50 for ETB receptors) it was ~3480 nM.
As to `COc1ccsc1S(=O)(=O)Nc1onc(C)c1C` [N-(3,4-dimethyl-5-isoxazolyl)-3-methoxythiophene-2-sulfonamide], the IC50 was determined as 2500 nM on human ETA receptors (setting [1]) and 45500 nM at human ETB receptor (setting [2]).
Turning to `Cc1noc(NS(=O)(=O)c2ccc(-c3ccccc3)cc2)c1C` [N-(3,4-dimethyl-5-isoxazolyl)-4-biphenylsufonamide], the IC50 on human ETA receptors (setting [3]) came to 9900 ± 1400 nM; at human ETA receptors (Table 2, † incubation at 24° C., read-out: ETA) it was 6300 nM; at human ETB receptor (setting [4]), 770 ± 320 nM; on human ETB receptor (Table 2, † incubation at 24° C., read-out: ETB) it was 150 nM.
Take `Cc1noc(NS(=O)(=O)c2cc3ccccc3s2)c1C` [N-(3,4-dimethyl-5-isoxazolyl)benzo[b]thiophene-2-sulfonamide]: the results for the IC50 on human ETA receptors (setting [1]) and at human ETB receptor (setting [2]) were 7220 nM and 11100 nM, respectively.
For `Cc1noc(NS(=O)(=O)c2cc3ccccc3o2)c1C` [N-(3,4-dimethyl-5-isoxazolyl)benzofuran-2-sulfonamide], in that order: 5220 nM and 38400 nM.
Turning to `Cc1noc(NS(=O)(=O)c2ccc(-c3ccccc3)s2)c1C` [N-(3,4-dimethyl-5-isoxazolyl-5-phenylthiophen-2-sulfonamide], the IC50 on human ETA receptors (setting [1]) is 2550 nM; at human ETB receptor (setting [2]), 1290 nM.
For `Cc1noc(NS(=O)(=O)c2ccn(-c3ccc(C(C)C)cc3)c2)c1Br` [N-(4-Bromo-3-methyl-5-isoxazolyl) 1-(4′-isopropylphenyl)pyrrole-3-sulfonamide], in that order: 838 nM and 211 nM.
For `Cc1noc(NS(=O)(=O)c2cccn2-c2ccc(C(C)C)cc2)c1Br` [N-(4-Bromo-3-methyl-5-isoxazolyl)-1-(4′-isopropylphenyl)pyrrole-2-sulfonamide], in that order: 11400 nM and 166 nM.
As to `Cc1noc(NS(=O)(=O)c2cccn2-c2ccccc2)c1Br` [N-(4-Bromo-3-methyl-5-isoxazolyl)-1-(phenyl)pyrrole-2-sulfonamide], the IC50 on human ETA receptors (setting [1]) came to 18100 nM; at human ETB receptor (setting [2]), 8700 nM.
For `Cc1noc(NS(=O)(=O)c2cc(Cl)sc2Cl)c1Br` [N-(4-Bromo-3-methyl-5-isoxazolyl)-2,5-dichlorothiophene-3-sulfonamide], in that order: ~390 nM and 2620 nM.
As for `Cc1cc(S(=O)(=O)Nc2onc(C)c2Br)c(C)s1` [N-(4-Bromo-3-methyl-5-isoxazolyl)-2,5-dimethylthiophene-3-sulfonamide], the values for the IC50 on human ETA receptors (setting [1]) and at human ETB receptor (setting [2]) were 95.6 nM and 7800 nM, respectively.
For `Cc1noc(NS(=O)(=O)c2ccsc2C(=O)NCc2ccccc2)c1Br` [N-(4-Bromo-3-methyl-5-isoxazolyl)-2-(N-benzylaminocarbonyl)thiophene-3-sulfonamide], in that order: 13 nM and 12700 nM.
For `Cc1noc(NS(=O)(=O)c2ccsc2C(=O)O)c1Br` [N-(4-Bromo-3-methyl-5-isoxazolyl)-2-(carboxyl)thiophene-3-sulfonamide], in that order: ~600 nM and ~67000 nM.
On the same counts, the results for `COc1ccccc1NC(=O)c1sccc1S(=O)(=O)Nc1onc(C)c1Br` [N-(4-Bromo-3-methyl-5-isoxazolyl)-2-[N-(2-methoxyphenyl)aminocarbonyl]thiophene-3-sulfonamide] are 11.6 nM and 13200 nM.
As to `COc1cccc(NC(=O)c2sccc2S(=O)(=O)Nc2onc(C)c2Br)c1` [N-(4-Bromo-3-methyl-5-isoxazolyl)-2-[N-(3-methoxyphenyl)aminocarbonyl]thiophene-3-sulfonamide], the IC50 was 3 nM on human ETA receptors (setting [1]) and 5860 nM on human ETB receptor (setting [2]).
On the same counts, the results for `Cc1noc(NS(=O)(=O)c2ccsc2C(=O)Nc2ccc(-c3ccccc3)cc2)c1Br` [N-(4-Bromo-3-methyl-5-isoxazolyl)-2-[N-(4-biphenyl)aminocarbonyl]thiophene-3-sulfonamide] are 37.6 nM and 912 nM.
For `CCc1ccc(NC(=O)c2sccc2S(=O)(=O)Nc2onc(C)c2Br)cc1` [N-(4-Bromo-3-methyl-5-isoxazolyl)-2-[N-(4-ethylphenyl)aminocarbonyl]thiophene-3-sulfonamide], in that order: 1.6 nM and 849 nM.
On the same counts, the results for `COc1ccc(NC(=O)c2sccc2S(=O)(=O)Nc2onc(C)c2Br)cc1` [N-(4-Bromo-3-methyl-5-isoxazolyl)-2-[N-(4-methoxyphenyl)aminocarbonyl]thiophene-3-sulfonamide] are 2 nM and 2120 nM.
In the case of `Cc1noc(NS(=O)(=O)c2cc(Br)c(Br)s2)c1Br` [N-(4-Bromo-3-methyl-5-isoxazolyl)-4,5-dibromothiophene-2-sulfonamide], the IC50 on human ETA receptors (setting [1]) stood at 281 nM; at human ETB receptor (setting [2]), 2580 nM.
